Data taken from ChEMBL document CHEMBL1201862, “PubChem BioAssay data set” (2004).
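Following 48 hours of exposure in 96-well plates, responses at five concentrations were used to interpolate endpoints linearly. The concentration for 50% growth inhibition is given as GI50.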 Calls of active or inactive are those of the source. Cut-off read from the data, not from the text of the source: active = GI50 up to about 1.1 µM and inactive = higher.

Experiments:
Experiment in all cases: NCI anticancer screen, dose series, 48 h
[1] = system: SK-MEL-5
[2] = system: UACC-257
[3] = system: COLO 205
[4] = system: HT-29
[5] = system: HOP-62
[6] = system: UO-31
[7] = system: SK-OV-3
[8] = system: LOX IMVI
[9] = system: TK-10
[10] = system: ACHN
[11] = system: SW-620
[12] = system: A498
[13] = system: NCI-H226
[14] = system: SN12C
[15] = system: NCI/ADR-RES
[16] = system: OVCAR-8
[17] = system: PC-3
[18] = system: K562
[19] = system: HOP-92
[20] = system: SK-MEL-2

| Compound | GI50 [1] | GI50 [2] | GI50 [3] | GI50 [4] | GI50 [5] | GI50 [6] | GI50 [7] | GI50 [8] | GI50 [9] | GI50 [10] | GI50 [11] | GI50 [12] | GI50 [13] | GI50 [14] | GI50 [15] | GI50 [16] | GI50 [17] | GI50 [18] | GI50 [19] | GI50 [20] |
| --- | --- | --- | --- | --- | --- | --- | --- | --- | --- | --- | --- | --- | --- | --- | --- | --- | --- | --- | --- | --- |
| COc1cccc(C2c3cc4c(cc3OC(C)(O)C2C)OCO4)c1O (stereo unspecified) | 2.84 µM (inactive) | 8.15 µM (inactive) | 2.19 µM (inactive) | 3.88 µM (inactive) | 4.2 µM (inactive) | 6.14 µM (inactive) | 3.57 µM (inactive) | 5.12 µM (inactive) | 5.56 µM (inactive) | 7.06 µM (inactive) | 3.25 µM (inactive) | 3.24 µM (inactive) | 5.12 µM (inactive) | 5.27 µM (inactive) | 2.13 µM (inactive) | 4.94 µM (inactive) | 3.37 µM (inactive) | 3.87 µM (inactive) | 6 µM (inactive) | 9.89 µM (inactive) |
| Cc1nnc(N)nc1C/C=C/C(Sc1ccc(Cl)cc1)c1ccccc1 (stereo unspecified) | 4.35 µM (inactive) | 4.22 µM (inactive) | 4.5 µM (inactive) | 7.01 µM (inactive) | 5.28 µM (inactive) | 1.52 µM (inactive) | 3.86 µM (inactive) | 2.26 µM (inactive) | 7.14 µM (inactive) | 4.3 µM (inactive) | 4.2 µM (inactive) | 3.73 µM (inactive) | 1.86 µM (inactive) | 4.41 µM (inactive) | 4.69 µM (inactive) | 5.04 µM (inactive) | 3.01 µM (inactive) | 3.44 µM (inactive) | 5.68 µM (inactive) | 5.66 µM (inactive) |
| Nc1nc(O)c2ncn([C@H]3CC[C@@H](CO)O3)c2n1 | > 100 µM (inactive) | > 100 µM (inactive) | > 100 µM (inactive) | > 100 µM (inactive) | > 100 µM (inactive) | > 100 µM (inactive) | > 100 µM (inactive) | > 100 µM (inactive) | > 100 µM (inactive) | – | > 100 µM (inactive) | > 100 µM (inactive) | > 100 µM (inactive) | > 100 µM (inactive) | > 100 µM (inactive) | > 100 µM (inactive) | > 100 µM (inactive) | > 100 µM (inactive) | > 100 µM (inactive) | > 100 µM (inactive) |
| COC(=O)C(C(=O)C(=O)Nc1c(C)cccc1C(C)(C)C)c1nc2ccc(Cl)cc2nc1O (stereo unspecified) | > 100 µM (inactive) | > 100 µM (inactive) | – | > 100 µM (inactive) | > 100 µM (inactive) | > 100 µM (inactive) | > 100 µM (inactive) | > 100 µM (inactive) | > 100 µM (inactive) | > 100 µM (inactive) | > 100 µM (inactive) | > 100 µM (inactive) | > 100 µM (inactive) | > 100 µM (inactive) | > 100 µM (inactive) | > 100 µM (inactive) | > 100 µM (inactive) | > 100 µM (inactive) | > 100 µM (inactive) | > 100 µM (inactive) |
| CO/N=C(\C(=O)O/C(=N/C1CCCCC1)NC1CCCCC1)c1csc(NC(c2ccccc2)(c2ccccc2)c2ccccc2)n1 | > 10 µM (inactive) | > 10 µM (inactive) | > 10 µM (inactive) | > 10 µM (inactive) | > 10 µM (inactive) | > 10 µM (inactive) | > 10 µM (inactive) | 9.46 µM (inactive) | > 10 µM (inactive) | > 10 µM (inactive) | > 10 µM (inactive) | > 10 µM (inactive) | > 10 µM (inactive) | > 10 µM (inactive) | > 10 µM (inactive) | > 10 µM (inactive) | > 10 µM (inactive) | > 10 µM (inactive) | > 10 µM (inactive) | > 10 µM (inactive) |
| CC(=O)O[C@H]1[C@@H](N2CCN(C)CC2)C[C@H]2[C@@H]3CC=C4C[C@@H](N5CCCC5)CC[C@]4(C)[C@H]3CC[C@@]21C | 25.9 µM (inactive) | 21.1 µM (inactive) | 3.85 µM (inactive) | 4.14 µM (inactive) | 46.5 µM (inactive) | 34.9 µM (inactive) | > 100 µM (inactive) | 17.4 µM (inactive) | > 100 µM (inactive) | > 100 µM (inactive) | 44.9 µM (inactive) | > 100 µM (inactive) | > 100 µM (inactive) | > 100 µM (inactive) | 98.4 µM (inactive) | 85.1 µM (inactive) | 40.9 µM (inactive) | 11.2 µM (inactive) | > 100 µM (inactive) | > 100 µM (inactive) |
| O=C(O)C12CC3(C(=O)O)CC(C(=O)O)(CC(C(=O)O)(C1)C3=O)C2=O | > 100 µM (inactive) | > 100 µM (inactive) | > 100 µM (inactive) | > 100 µM (inactive) | > 100 µM (inactive) | > 100 µM (inactive) | > 100 µM (inactive) | > 100 µM (inactive) | > 100 µM (inactive) | > 100 µM (inactive) | > 100 µM (inactive) | > 100 µM (inactive) | > 100 µM (inactive) | > 100 µM (inactive) | > 100 µM (inactive) | > 100 µM (inactive) | > 100 µM (inactive) | > 100 µM (inactive) | > 100 µM (inactive) | > 100 µM (inactive) |
| O=[N+]([O-])c1ccc(C(O)(C#CCN2CCCC2)c2ccccc2)cc1 (stereo unspecified) | 21 µM (inactive) | 25.6 µM (inactive) | 18 µM (inactive) | 17 µM (inactive) | 92.5 µM (inactive) | 26.1 µM (inactive) | 80.7 µM (inactive) | 16.2 µM (inactive) | 52.1 µM (inactive) | 56.2 µM (inactive) | 98.9 µM (inactive) | 23.3 µM (inactive) | 81.5 µM (inactive) | 38.3 µM (inactive) | 69.5 µM (inactive) | 36.6 µM (inactive) | 30.4 µM (inactive) | 19.7 µM (inactive) | 10.2 µM (inactive) | 24.5 µM (inactive) |
| CC(=O)N1NC(c2ccccc2)=CC(=O)/C1=C/C(=O)c1ccccc1 | 47.8 µM (inactive) | > 100 µM (inactive) | > 100 µM (inactive) | > 100 µM (inactive) | 88.1 µM (inactive) | 98.4 µM (inactive) | > 100 µM (inactive) | 40.9 µM (inactive) | 48.8 µM (inactive) | 77.3 µM (inactive) | – | > 100 µM (inactive) | 93.8 µM (inactive) | 82.8 µM (inactive) | 50.4 µM (inactive) | > 100 µM (inactive) | > 100 µM (inactive) | 56 µM (inactive) | 34.5 µM (inactive) | > 100 µM (inactive) |
| CC(C)(O)/C1=C/C=C/CCCCCCCCCC1 | 0.246 µM (active) | > 100 µM (inactive) | > 100 µM (inactive) | > 100 µM (inactive) | > 100 µM (inactive) | 51.9 µM (inactive) | > 100 µM (inactive) | > 100 µM (inactive) | > 100 µM (inactive) | > 100 µM (inactive) | > 100 µM (inactive) | > 100 µM (inactive) | > 100 µM (inactive) | > 100 µM (inactive) | > 100 µM (inactive) | > 100 µM (inactive) | 87.1 µM (inactive) | 37.8 µM (inactive) | 81.3 µM (inactive) | > 100 µM (inactive) |
| Cc1nc2sc3cccc(Cl)c3n2c(=O)c1/N=N/c1ccc(Cl)cc1 | 68.2 µM (inactive) | 98.6 µM (inactive) | 94.6 µM (inactive) | 67.1 µM (inactive) | 75.2 µM (inactive) | – | > 100 µM (inactive) | 58.1 µM (inactive) | > 100 µM (inactive) | 59.7 µM (inactive) | 66.5 µM (inactive) | 17.4 µM (inactive) | 42.4 µM (inactive) | > 100 µM (inactive) | > 100 µM (inactive) | > 100 µM (inactive) | 51.2 µM (inactive) | 63 µM (inactive) | 46.6 µM (inactive) | > 100 µM (inactive) |
| CC(C)CNC(=O)CCc1cccc2c1oc1c(CCN)cccc12 | 14.2 µM (inactive) | 11.7 µM (inactive) | 5.86 µM (inactive) | 9.31 µM (inactive) | 18.5 µM (inactive) | 12.4 µM (inactive) | 17 µM (inactive) | 12.5 µM (inactive) | – | 12.8 µM (inactive) | 12 µM (inactive) | 15 µM (inactive) | 16.9 µM (inactive) | 17.4 µM (inactive) | 18.7 µM (inactive) | 18.1 µM (inactive) | 13.4 µM (inactive) | 1.98 µM (inactive) | 5.7 µM (inactive) | 18.5 µM (inactive) |
| CO/C=C(/C(=O)OC)c1ccccc1Oc1c(F)c(F)c(F)c(F)c1F | 20.9 µM (inactive) | 24.9 µM (inactive) | 17.6 µM (inactive) | 32.4 µM (inactive) | 53.6 µM (inactive) | 32.2 µM (inactive) | 47.9 µM (inactive) | 32.4 µM (inactive) | 28.5 µM (inactive) | 50.4 µM (inactive) | – | 36.7 µM (inactive) | 38.2 µM (inactive) | 42.9 µM (inactive) | 40.7 µM (inactive) | 80.5 µM (inactive) | 34.8 µM (inactive) | 38.7 µM (inactive) | 19.6 µM (inactive) | 24.2 µM (inactive) |
| CC1(C)[C@@H](Cn2cnc3c(O)nc(N)nc32)CC[C@@]1(C)CO | > 100 µM (inactive) | > 100 µM (inactive) | – | – | > 100 µM (inactive) | > 100 µM (inactive) | > 100 µM (inactive) | > 100 µM (inactive) | > 100 µM (inactive) | > 100 µM (inactive) | > 100 µM (inactive) | > 100 µM (inactive) | > 100 µM (inactive) | > 100 µM (inactive) | > 100 µM (inactive) | – | > 100 µM (inactive) | > 100 µM (inactive) | > 100 µM (inactive) | > 100 µM (inactive) |
